Measurements from patent US20240245677A1, “SELECTED COMPOUNDS FOR TARGETED DEGRADATION OF BRD9” (C4 THERAPEUTICS, INC., priority 2021, published 2024).
Where “and” joins values, the source holds several entries; their conditions need not be identical. Identical values can stand only once. Like-named read-outs stand apart in the source and are kept apart here.

Assay: Pharmacokinetic study in male Sprague Dawley rats
Assay type: in vivo, rat
Conditions: for concentration at 0.033 h / concentration at 0.33 h / concentration at 1 h / concentration at 2 h / concentration at 4 h / concentration at 8 h / concentration at 24 h: male, Sprague Dawley, rat, plasma
Procedure: The pharmacokinetic (PK) profile in plasma of Compound 1 was determined in male Sprague Dawley rats following single dose intravenous (IV) (2 mg/kg) and per os (PO) (10 mg/kg) administration. This study was performed under non-GLP conditions, and unless otherwise stated, all analytical reagents were at least standard laboratory reagent grade, and deionized water was prepared at the study site.
The characteristics of Compound 1 used in this study were as follows: molecular weight of base, 710.78; molecular weight of Compound 1 with salt, 824.81; purity on as is basis, 99.28%.
All animals were housed in cages with clean bedding and maintained and monitored for good health and at the discretion of the laboratory animal veterinarian. Certified rodent diet was provided, and water was available ad libitum. Environmental controls for the animal room were set to maintain a temperature of 22 to 25° C., humidity of 40-70% relative humidity, and a 12-hour light/12-hour dark cycle.
Normal healthy animals certified by the attending veterinarian were selected and acclimatized for a minimum of three days prior to initiation of the study. Animals were identified by body markings.
The rats were anaesthetized with a single dose of ketamine 50 mg/kg i.p. plus xylazine 6 mg/kg i.p. The right jugular was exposed, and a loose ligature was placed caudally, and the cranial end of the vein was ligated. A small incision was made between the ligatures into which a catheter (polyethylene 50 tubing with an internal diameter of 0.58 mm and outer diameter of 0.96 mm) was inserted. The catheter was secured in place by tying the loose ligature around the catheterized vessel. A small incision was made in the scapular region to serve as the exit site of the catheter. The catheter was subcutaneously tunneled and exteriorized through the scapular incision. A stay suture was placed in the scapular area. Patency was tested, and the catheter was filled with a locking solution (heparinized saline) and sealed with a stainless-steel plug. The incision was then sutured with sterile suturing material. Anti-septic solution was applied to the sutured site and the animal was placed back in its home cage. The animals were closely observed throughout the recovery period of 24 hours. The rats were freely moving in the cage (one rat per cage).
Test animals were weighed prior to drug administration, and the standard weight of the animals used was 190 grams. The animals were divided into two groups, IV group and PO group, with each group containing 3 test animals each and 2 spare animals. The IV dose was administered by intravenous injection into the tail vein and PO dose was administered via oral gavage needle. The dosing volume was 5 mL/kg body weight for both groups. The dosing concentration was 0.4 mg/mL for the IV group and 2 mg/mL for the PO group. The animals were in fasted state during the study.
For both dosing groups, blood was collected from the jugular vein (serial sampling) for plasma isolation at 0.033, 0.33, 1, 2, 4, 6, 8, and 24 hour timepoints. The anti-coagulant solution used was 6% (v/v) sodium citrate (200 mM, pH 4.79).
For sample collection, the animals were held to remove the first two drops of blood from the cannula to ensure removal of any excess heparinized saline before collection of blood. The external catheter was connected to a syringe and 0.20-0.30 mL of blood was collected in the syringe and transferred to a pre-labeled, pre-chilled tube. Blood volume was replaced by administering to the animal an equal volume of saline through the jugular vein. After blood collection from each animal, the sample from that animal was recorded in the sample collection sheet.
After collection of each blood sample, the blood sample was stored on ice prior to centrifugation. Blood samples were centrifuged within 20 minutes of collection to separate plasma. Centrifugation was conducted at 2500×g for 15 minutes at 4° C. […]

SMILES: COc1cc(-c2cn(C)c(=O)c(C)c2C)cc(OC)c1CN1CC[C@H](N2CCN(c3ccc(N[C@H]4CCC(=O)NC4=O)cc3F)CC2)C(F)(F)C1 [Compound 1, (S)-3-((4-(4-((S)-1-(2,6-dimethoxy-4-(1,4,5-trimethyl-6-oxo-1,6-dihydropyridin-3-yl)benzyl)-3,3-difluoropiperidin-4-yl)piperazin-1-yl)-3-fluorophenyl)amino)-piperidine-2,6-dione]
- Plasma Concentration, individual rats (2 mg/kg IV, 0.033 h): 827.34 ng/mL and 751.46 ng/mL
- Plasma Concentration, individual rats (2 mg/kg IV, 0.33 h): 387.61 ng/mL and 411.63 ng/mL
- Plasma Concentration, individual rats (2 mg/kg IV, 1 h): 253.11 ng/mL and 196.32 ng/mL
- Plasma Concentration, individual rats (2 mg/kg IV, 2 h): 175.63 ng/mL and 182.50 ng/mL
- Plasma Concentration, individual rats (2 mg/kg IV, 4 h): 82.15 ng/mL and 113.01 ng/mL
- Plasma Concentration, individual rats (2 mg/kg IV, 8 h): 66.27 ng/mL and 68.01 ng/mL
- Plasma Concentration, individual rats (2 mg/kg IV, 24 h): 2.51 ng/mL and 4.24 ng/mL
- CI (2 mg/kg IV, Male Sprague Dawley Rats, mean): 21.64 mL/min/kg
- concentration at 0.033 h (intravenous, 2 mg/kg, 2 mg/kg IV, 0.033 h, read-out: Plasma Concentration, Average): 811 ng/mL
- concentration at 0.033 h (intravenous, 2 mg/kg, 2 mg/kg IV, 0.033 h, read-out: Plasma Concentration, individual rats): 854 ng/mL
- concentration at 0.33 h (intravenous, 2 mg/kg, 2 mg/kg IV, 0.33 h, read-out: Plasma Concentration, Average): 395 ng/mL
- concentration at 0.33 h (intravenous, 2 mg/kg, 2 mg/kg IV, 0.33 h, read-out: Plasma Concentration, individual rats): 385 ng/mL
- concentration at 1 h (intravenous, 2 mg/kg, 2 mg/kg IV, 1 h, read-out: Plasma Concentration, Average): 202 ng/mL
- concentration at 1 h (intravenous, 2 mg/kg, 2 mg/kg IV, 1 h, read-out: Plasma Concentration, individual rats): 158 ng/mL
- concentration at 2 h (intravenous, 2 mg/kg, 2 mg/kg IV, 2 h, read-out: Plasma Concentration, Average): 181 ng/mL
- concentration at 2 h (intravenous, 2 mg/kg, 2 mg/kg IV, 2 h, read-out: Plasma Concentration, individual rats): 186 ng/mL
- concentration at 4 h (intravenous, 2 mg/kg, 2 mg/kg IV, 4 h, read-out: Plasma Concentration, Average): 107 ng/mL
- concentration at 4 h (intravenous, 2 mg/kg, 2 mg/kg IV, 4 h, read-out: Plasma Concentration, individual rats): 125 ng/mL
- concentration at 8 h (intravenous, 2 mg/kg, 2 mg/kg IV, 8 h, read-out: Plasma Concentration, Average): 61.9 ng/mL
- concentration at 8 h (intravenous, 2 mg/kg, 2 mg/kg IV, 8 h, read-out: Plasma Concentration, individual rats): 51.4 ng/mL
- concentration at 24 h (intravenous, 2 mg/kg, 2 mg/kg IV, 24 h, read-out: Plasma Concentration, Average): 3.76 ng/mL
- concentration at 24 h (intravenous, 2 mg/kg, 2 mg/kg IV, 24 h, read-out: Plasma Concentration, individual rats): 4.54 ng/mL
- concentration at 0.033 h (oral, 10 mg/kg, 10 mg/kg PO, Male Sprague Dawley Rats, 0.033 h, Rat-1, read-out: Plasma Concentration (ng/mL) Rat-1): 2.98 ng/mL
- concentration at 0.033 h (oral, 10 mg/kg, 10 mg/kg PO, Male Sprague Dawley Rats, 0.033 h, Rat-2, read-out: Plasma Concentration (ng/mL) Rat-2): 16.4 ng/mL
- concentration at 0.033 h (oral, 10 mg/kg, 10 mg/kg PO, Male Sprague Dawley Rats, 0.033 h, Rat-3, read-out: Plasma Concentration (ng/mL) Rat-3): 1.81 ng/mL
- concentration at 0.033 h (oral, 10 mg/kg, 10 mg/kg PO, Male Sprague Dawley Rats, 0.033 h, average, read-out: Plasma Concentration Average): 7.06 ng/mL
- concentration at 0.33 h (oral, 10 mg/kg, 10 mg/kg PO, Male Sprague Dawley Rats, 0.33 h, Rat-1, read-out: Plasma Concentration (ng/mL) Rat-1): 215 ng/mL
- concentration at 0.33 h (oral, 10 mg/kg, 10 mg/kg PO, Male Sprague Dawley Rats, 0.33 h, Rat-2, read-out: Plasma Concentration (ng/mL) Rat-2): 177 ng/mL
- concentration at 0.33 h (oral, 10 mg/kg, 10 mg/kg PO, Male Sprague Dawley Rats, 0.33 h, Rat-3, read-out: Plasma Concentration (ng/mL) Rat-3): 350 ng/mL
- concentration at 0.33 h (oral, 10 mg/kg, 10 mg/kg PO, Male Sprague Dawley Rats, 0.33 h, average, read-out: Plasma Concentration Average): 247 ng/mL
- concentration at 1 h (oral, 10 mg/kg, 10 mg/kg PO, Male Sprague Dawley Rats, 1 h, Rat-1, read-out: Plasma Concentration (ng/mL) Rat-1): 648 ng/mL
- concentration at 1 h (oral, 10 mg/kg, 10 mg/kg PO, Male Sprague Dawley Rats, 1 h, Rat-2, read-out: Plasma Concentration (ng/mL) Rat-2): 416 ng/mL
